In PubChem BioAssay (NCI):
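Grown in 96-well plates, cells were treated for 48 hours with each compound at five concentrations. Insufficient inhibition: endpoint recorded as highest concentration tested. At the GI50, growth is halved. TGI denotes the concentration required for complete inhibition of growth.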

Assays:
Test in all cases: NCI tumour cell line growth inhibition, 48 h
MDA-MB-231 breast = test system: MDA-MB-231 breast
MCF7 breast = test system: MCF7 breast
SF-295 CNS = test system: SF-295 CNS
SR leukemia = test system: SR leukemia
IGROV1 ovarian = test system: IGROV1 ovarian
CAKI-1 renal = test system: CAKI-1 renal
SK-MEL-2 melanoma = test system: SK-MEL-2 melanoma
SF-539 CNS = test system: SF-539 CNS
SK-OV-3 ovarian = test system: SK-OV-3 ovarian
UACC-62 melanoma = test system: UACC-62 melanoma
PC-3 prostate = test system: PC-3 prostate
NCI-H522 lung = test system: NCI-H522 lung
SK-MEL-28 melanoma = test system: SK-MEL-28 melanoma
DU-145 prostate = test system: DU-145 prostate
HCC-2998 colon = test system: HCC-2998 colon
MALME-3M melanoma = test system: MALME-3M melanoma
SNB-19 CNS = test system: SNB-19 CNS
HCT-116 colon = test system: HCT-116 colon
A549 NSCLC = test system: A549 NSCLC
CCRF-CEM leukemia = test system: CCRF-CEM leukemia
SF-268 CNS = test system: SF-268 CNS
HS 578T breast = test system: HS 578T breast
EKVX NSCLC = test system: EKVX NSCLC
HOP-92 NSCLC = test system: HOP-92 NSCLC
T-47D breast = test system: T-47D breast
HCT-15 colon = test system: HCT-15 colon
ACHN renal = test system: ACHN renal
M14 melanoma = test system: M14 melanoma
BT-549 breast = test system: BT-549 breast
OVCAR-3 ovarian = test system: OVCAR-3 ovarian
LOX IMVI melanoma = test system: LOX IMVI melanoma
UACC-257 melanoma = test system: UACC-257 melanoma
NCI/ADR-RES ovarian = test system: NCI/ADR-RES ovarian
OVCAR-8 ovarian = test system: OVCAR-8 ovarian
OVCAR-4 ovarian = test system: OVCAR-4 ovarian
TK-10 renal = test system: TK-10 renal
SK-MEL-5 melanoma = test system: SK-MEL-5 melanoma
HOP-62 NSCLC = test system: HOP-62 NSCLC
K-562 leukemia = test system: K-562 leukemia
RPMI-8226 leukemia = test system: RPMI-8226 leukemia
786-0 renal = test system: 786-0 renal
RXF 393 renal = test system: RXF 393 renal
MOLT-4 leukemia = test system: MOLT-4 leukemia
OVCAR-5 ovarian = test system: OVCAR-5 ovarian
NCI-H23 lung = test system: NCI-H23 lung
SN12C renal = test system: SN12C renal
SW-620 colon = test system: SW-620 colon
HT29 colon = test system: HT29 colon
HL-60(TB) leukemia = test system: HL-60(TB) leukemia
COLO 205 colon = test system: COLO 205 colon
NCI-H226 lung = test system: NCI-H226 lung
MDA-MB-435 = test system: MDA-MB-435
KM12 colon = test system: KM12 colon
UO-31 renal = test system: UO-31 renal
A498 renal = test system: A498 renal
SNB-75 CNS = test system: SNB-75 CNS

With `O=c1[nH]cnc2c1ccn2C1OC(CO)C(O)C1O` (configuration not stated) the GI50 (MDA-MB-231 breast) was 4.27 µM, the TGI (MDA-MB-231 breast) was greater than 100 µM and the GI50 (MCF7 breast) was 2.41 µM. It also gave a TGI (MCF7 breast) greater than 100 µM, a GI50 (SF-295 CNS) of 8.6 µM and a TGI (SF-295 CNS) greater than 100 µM. It also gave a GI50 (SR leukemia) of 5.38 µM, a TGI (SR leukemia) of 49.3 µM and a GI50 (IGROV1 ovarian) of 4.32 µM. For the same molecule, the TGI (IGROV1 ovarian) was 35.1 µM, the GI50 (CAKI-1 renal) was 2.57 µM and the TGI (CAKI-1 renal) was greater than 100 µM. It also gave a GI50 (SK-MEL-2 melanoma) of 3.04 µM, a TGI (SK-MEL-2 melanoma) of 17.5 µM and a GI50 (SF-539 CNS) of 10.7 µM. The TGI (SF-539 CNS) was greater than 100 µM, the GI50 (SK-OV-3 ovarian) was 3.72 µM and the TGI (SK-OV-3 ovarian) was greater than 100 µM. For the same molecule, the GI50 (UACC-62 melanoma) was 10.1 µM, the TGI (UACC-62 melanoma) was 27.8 µM and the GI50 (PC-3 prostate) was 3.35 µM. It also gave a TGI (PC-3 prostate) greater than 100 µM, a GI50 (NCI-H522 lung) of 7.32 µM and a TGI (NCI-H522 lung) of 34.7 µM. For the same molecule, the GI50 (SK-MEL-28 melanoma) was 18.6 µM, the TGI (SK-MEL-28 melanoma) was greater than 100 µM and the GI50 (DU-145 prostate) was 2.34 µM. It also gave a TGI (DU-145 prostate) of 23.8 µM, a GI50 (HCC-2998 colon) of 7.66 µM and a TGI (HCC-2998 colon) greater than 100 µM. It also gave a GI50 (MALME-3M melanoma) of 6.42 µM, a TGI (MALME-3M melanoma) of 32.8 µM and a GI50 (SNB-19 CNS) of 14.8 µM. It also gave a TGI (SNB-19 CNS) greater than 100 µM, a GI50 (HCT-116 colon) of 2.29 µM and a TGI (HCT-116 colon) of 28.8 µM. For the same molecule, the GI50 (A549 NSCLC) was 7.53 µM, the TGI (A549 NSCLC) was greater than 100 µM and the GI50 (CCRF-CEM leukemia) was 4.74 µM. It also gave a TGI (CCRF-CEM leukemia) of 96 µM, a GI50 (SF-268 CNS) of 11.7 µM and a TGI (SF-268 CNS) greater than 100 µM. It also gave a GI50 (HS 578T breast) of 14 µM, a TGI (HS 578T breast) greater than 100 µM and a GI50 (EKVX NSCLC) of 17.8 µM. For the same molecule, the TGI (EKVX NSCLC) was greater than 100 µM, the GI50 (HOP-92 NSCLC) was 2 µM and the TGI (HOP-92 NSCLC) was 15.5 µM. It also gave a GI50 (T-47D breast) of 2.49 µM, a TGI (T-47D breast) of 80 µM and a GI50 (HCT-15 colon) of 4.1 µM. For the same molecule, the TGI (HCT-15 colon) was greater than 100 µM, the GI50 (ACHN renal) was 2.51 µM and the TGI (ACHN renal) was greater than 100 µM. It also gave a GI50 (M14 melanoma) of 4.36 µM, a TGI (M14 melanoma) greater than 100 µM and a GI50 (BT-549 breast) of 5.86 µM. For the same molecule, the TGI (BT-549 breast) was greater than 100 µM, the GI50 (OVCAR-3 ovarian) was 5.68 µM and the TGI (OVCAR-3 ovarian) was greater than 100 µM. For the same molecule, the GI50 (LOX IMVI melanoma) was 2.18 µM, the TGI (LOX IMVI melanoma) was 16 µM and the GI50 (UACC-257 melanoma) was 12.3 µM. For the same molecule, the TGI (UACC-257 melanoma) was 78 µM, the GI50 (NCI/ADR-RES ovarian) was 3.2 µM and the TGI (NCI/ADR-RES ovarian) was greater than 100 µM. For the same molecule, the GI50 (OVCAR-8 ovarian) was 2.3 µM, the TGI (OVCAR-8 ovarian) was 90.4 µM and the GI50 (OVCAR-4 ovarian) was 1.48 µM. For the same molecule, the TGI (OVCAR-4 ovarian) was 28.7 µM, the GI50 (TK-10 renal) was 3.64 µM and the TGI (TK-10 renal) was 51.3 µM. It also gave a GI50 (SK-MEL-5 melanoma) of 6.1 µM, a TGI (SK-MEL-5 melanoma) of 19.2 µM and a GI50 (HOP-62 NSCLC) of 6.7 µM. It also gave a TGI (HOP-62 NSCLC) greater than 100 µM, a GI50 (K-562 leukemia) of 5.86 µM and a TGI (K-562 leukemia) greater than 100 µM. For the same molecule, the GI50 (RPMI-8226 leukemia) was 3.15 µM, the TGI (RPMI-8226 leukemia) was 21.5 µM and the GI50 (786-0 renal) was 3.56 µM. For the same molecule, the TGI (786-0 renal) was greater than 100 µM, the GI50 (RXF 393 renal) was 3.12 µM and the TGI (RXF 393 renal) was 22.9 µM. It also gave a GI50 (MOLT-4 leukemia) of 4.38 µM, a TGI (MOLT-4 leukemia) of 20.3 µM and a GI50 (OVCAR-5 ovarian) of 12 µM. The TGI (OVCAR-5 ovarian) was greater than 100 µM, the GI50 (NCI-H23 lung) was 6.01 µM and the TGI (NCI-H23 lung) was 65.4 µM. It also gave a GI50 (SN12C renal) of 3.6 µM, a TGI (SN12C renal) greater than 100 µM and a GI50 (SW-620 colon) of 3.17 µM. For the same molecule, the TGI (SW-620 colon) was greater than 100 µM, the GI50 (HT29 colon) was 5.73 µM and the TGI (HT29 colon) was greater than 100 µM. It also gave a GI50 (HL-60(TB) leukemia) of 3.88 µM, a TGI (HL-60(TB) leukemia) of 21.1 µM and a GI50 (COLO 205 colon) of 3.41 µM. For the same molecule, the TGI (COLO 205 colon) was 26.5 µM, the GI50 (NCI-H226 lung) was 16.1 µM and the TGI (NCI-H226 lung) was greater than 100 µM. The GI50 (MDA-MB-435) was 9.35 µM, the TGI (MDA-MB-435) was greater than 100 µM and the GI50 (KM12 colon) was 8.89 µM. For the same molecule, the TGI (KM12 colon) was greater than 100 µM, the GI50 (UO-31 renal) was 2.11 µM and the TGI (UO-31 renal) was 8.85 µM. For the same molecule, the GI50 (A498 renal) was 4.72 µM, the TGI (A498 renal) was 70.5 µM and the GI50 (SNB-75 CNS) was 3.8 µM. The TGI (SNB-75 CNS) was greater than 100 µM.
